Measurements: PubChem BioAssay AID1259407 (Chemical Carcinogenesis Research Information System (CCRIS), 2018)
Calls of active or inactive are those of the source. The rule behind the calls is not given here.

Test system: CCRIS mutagenicity, Ames/micronucleus/aberration tests
Experiment: CCRIS mutagenicity studies
[1] = Test System: AMES SALMONELLA TYPHIMURIUM, Strain/Indicator: TA98, Metabolic Activation: NONE, Method: STANDARD PLATE
[2] = Test System: AMES SALMONELLA TYPHIMURIUM, Strain/Indicator: TA100, Metabolic Activation: NONE, Method: STANDARD PLATE
[3] = Test System: AMES SALMONELLA TYPHIMURIUM, Strain/Indicator: TA1535, Metabolic Activation: NONE, Method: STANDARD PLATE
[4] = Test System: AMES SALMONELLA TYPHIMURIUM, Strain/Indicator: TA1537, Metabolic Activation: NONE, Method: STANDARD PLATE

SMILES: Cc1ccc(S(=O)(=O)Oc2ccc(N=Nc3ccc(-c4ccc(N=Nc5c(O)ccc6cc(S(=O)(=O)O)cc(S(=O)(=O)O)c56)c(C)c4)cc3C)cc2)cc1
- mutagenic call (Test System: AMES SALMONELLA TYPHIMURIUM, Strain/Indicator: TA98, Metabolic Activation: HAMSTER, LIVER, S-9, AROCLOR 1254 (10%), Method: PREINCUBATION): active; positive
- mutagenic call (Test System: AMES SALMONELLA TYPHIMURIUM, Strain/Indicator: TA98, Metabolic Activation: HAMSTER, LIVER, S-9, Method: PREINCUBATION (PRIVAL METHOD)): active; positive
- mutagenic call (Test System: AMES SALMONELLA TYPHIMURIUM, Strain/Indicator: TA98, Metabolic Activation: NONE, Method: PREINCUBATION): inactive; negative
- mutagenic call (Test System: AMES SALMONELLA TYPHIMURIUM, Strain/Indicator: TA98, Metabolic Activation: RAT, LIVER, S-9, AROCLOR 1254 (10%), Method: PREINCUBATION): inactive; negative
- mutagenic call (Test System: AMES SALMONELLA TYPHIMURIUM, Strain/Indicator: TA100, Metabolic Activation: HAMSTER, LIVER, S-9, AROCLOR 1254 (10%), Method: PREINCUBATION): inactive; negative
- mutagenic call (Test System: AMES SALMONELLA TYPHIMURIUM, Strain/Indicator: TA100, Metabolic Activation: NONE, Method: PREINCUBATION): inactive; negative
- mutagenic call (Test System: AMES SALMONELLA TYPHIMURIUM, Strain/Indicator: TA100, Metabolic Activation: RAT, LIVER, S-9, AROCLOR 1254 (10%), Method: PREINCUBATION): inactive; negative
- mutagenic call (Test System: AMES SALMONELLA TYPHIMURIUM, Strain/Indicator: TA1535, Metabolic Activation: HAMSTER, LIVER, S-9, AROCLOR 1254 (10%), Method: PREINCUBATION): inactive; negative
- mutagenic call (Test System: AMES SALMONELLA TYPHIMURIUM, Strain/Indicator: TA1535, Metabolic Activation: NONE, Method: PREINCUBATION): inactive; negative
- mutagenic call (Test System: AMES SALMONELLA TYPHIMURIUM, Strain/Indicator: TA1535, Metabolic Activation: RAT, LIVER, S-9, AROCLOR 1254 (10%), Method: PREINCUBATION): inactive; negative
- mutagenic call (Test System: AMES SALMONELLA TYPHIMURIUM, Strain/Indicator: TA1537, Metabolic Activation: HAMSTER, LIVER, S-9, AROCLOR 1254 (10%), Method: PREINCUBATION): inactive; negative
- mutagenic call (Test System: AMES SALMONELLA TYPHIMURIUM, Strain/Indicator: TA1537, Metabolic Activation: NONE, Method: PREINCUBATION): inactive; negative
- mutagenic call (Test System: AMES SALMONELLA TYPHIMURIUM, Strain/Indicator: TA1537, Metabolic Activation: RAT, LIVER, S-9, AROCLOR 1254 (10%), Method: PREINCUBATION): inactive; negative
- mutagenic call (Test System: AMES SALMONELLA TYPHIMURIUM, Strain/Indicator: TA1538, Metabolic Activation: RAT, LIVER, S-9, AROCLOR 1254, Method: STANDARD PLATE): active; positive

SMILES: CC(C)CCNc1snc2ccccc12
- mutagenic call [1]: inactive; negative
- mutagenic call (Test System: AMES SALMONELLA TYPHIMURIUM, Strain/Indicator: TA98, Metabolic Activation: S-9, Method: STANDARD PLATE): inactive; negative
- mutagenic call [2]: inactive; negative
- mutagenic call (Test System: AMES SALMONELLA TYPHIMURIUM, Strain/Indicator: TA100, Metabolic Activation: S-9, Method: STANDARD PLATE): inactive; negative
- mutagenic call [3]: inactive; negative
- mutagenic call (Test System: AMES SALMONELLA TYPHIMURIUM, Strain/Indicator: TA1535, Metabolic Activation: S-9, Method: STANDARD PLATE): inactive; negative
- mutagenic call [4]: inactive; negative
- mutagenic call (Test System: AMES SALMONELLA TYPHIMURIUM, Strain/Indicator: TA1537, Metabolic Activation: S-9, Method: STANDARD PLATE): inactive; negative

SMILES: CCN(CC)[N+](=O)[O-]
- mutagenic call (Test System: E. COLI, Strain/Indicator: WP2 (HCR-), Metabolic Activation: RAT, LIVER, MICROSOMES, PHENOBARBITAL): inactive; negative

SMILES: O=C(O)c1cc([N+](=O)[O-])cc2cccnc12
- mutagenic call [1]: active; positive
- mutagenic call (Test System: AMES SALMONELLA TYPHIMURIUM, Strain/Indicator: TA98, Metabolic Activation: RAT, LIVER, S-9, AROCLOR 1254, Method: STANDARD PLATE): active; positive
- mutagenic call [2]: inactive; negative
- mutagenic call (Test System: AMES SALMONELLA TYPHIMURIUM, Strain/Indicator: TA100, Metabolic Activation: RAT, LIVER, S-9, AROCLOR 1254, Method: STANDARD PLATE): active; positive
- mutagenic call [3]: inactive; negative
- mutagenic call (Test System: AMES SALMONELLA TYPHIMURIUM, Strain/Indicator: TA1535, Metabolic Activation: RAT, LIVER, S-9, AROCLOR 1254, Method: STANDARD PLATE): inactive; negative
- mutagenic call [4]: inactive; negative
- mutagenic call (Test System: AMES SALMONELLA TYPHIMURIUM, Strain/Indicator: TA1537, Metabolic Activation: RAT, LIVER, S-9, AROCLOR 1254, Method: STANDARD PLATE): inactive; negative
